Measured values taken from US10927136B2, “Phosphorus prodrugs of pyrazolo-substituted pyrimidine sGC stimulators” (Cyclerion Therapeutics, Inc., priority 2016, dated 2021).

Experiments:
[1] = Ex-vivo rat intestinal fluid stability assay; format: in vitro ADME; parameters: half-life: dose or concentration left out as unconfirmed; conditions: 37° C.; for prodrug converted into its parent drug / cleaved: after 60 minutes of incubation; for half-life: rat intestinal (jejunum) fluid, read-out: disappearance half-life (T1/2)
Protocol: Phosphate prodrugs disclosed herein were designed to be cleaved by alkaline phosphatase(s) that are present on the apical brush-border membranes of the intestine, after which the more hydrophobic parent compound is readily absorbed. Phosphatases are also present in the liver and in the systemic circulation. In order to test the speed of cleavage of the prodrug into the parent drug, […] solutions of each of the test compounds were incubated in rat intestinal (jejunum) fluid. Samples were taken at times=0, 5, 15, 30 and 60 min and the mixtures were quenched by the addition of acetonitrile containing an internal standard. Samples were analyzed by full scan LC/MS. The following protocol was used:
10 mM DMSO stock solutions were thawed or prepared for the positive control (Enalapril) and each test article. Internal standard (IS) crash solution in acetonitrile (ACN) with 20 ng/ml of Compound Z, depicted below, was prepared. Stock (250 uM) was prepared from 10 mM in 50/50 acetonitrile/H2O. Rat intestinal fluid vials were thawed in a water bath at rt.
In a 96-well, 1 ml plate, 48 uL of rat intestinal fluid was aliquoted in triplicate for each time point. The t0 (“0 min”) time point was prepared separately by adding 450 ul of IS crash solution to 48 ul of intestinal fluid, then adding 2 uL of test compound. 2 ul of the 250 uM substock was added to initiate the reaction at 5 min, 15 min, 30 min, and 60 min. The plate prepared in the above steps was covered with a plastic or foil seal and was set in the 37° C. incubator, lightly shaking. For each time point, 450 ul of IS crash solution was added to quench the reaction. The plates were centrifuged at 4000 RPM for 10 minutes at 4° C. 50 ul of supernatant was transferred into 50 ul of H2O and analyzed using LC/MS.
The disappearance of the prodrug and the conversion to the parent were monitored over time.

[2] = Dog PK following IV and oral dosing; format: in vivo, male Beagle dogs; parameters: half-life / clearance / AUC(0-inf): dose or concentration left out as unconfirmed
Protocol: PK in dogs was determined following IV and oral dosing.
For the oral (PO) experiments, two groups of 5 male Beagle dogs each were used. […] IV doses were administered through an indwelling catheter in the cephalic vein. Following dose administration, the catheter was flushed with ca. 3 mL of saline. Oral suspension doses were delivered to the stomach using a syringe and gavage tube. Following oral dosage administration, the gavage tube was flushed with approximately 10 mL of water to ensure complete delivery of the full dose.
Plasma and urine samples were collected as follows: for the PO experiments, samples were collected at 15 min, 30 min, 1 hour, 2 hours, 3 hours, 4 hours, 6 hours, 8 hours, 24 hours, 32 hours and 48 hours post-dosing; for the IV experiments, samples were collected at 2 min, 5 min, 15 min, 30 min, 1 hour, 2 hours, 3 hours, 4 hours, 6 hours, 8 hours, 24 hours, 32 hours and 48 hours post-dosing. Blood samples (2 mL) were collected from the jugular, cephalic or saphenous veins. These samples were kept on ice until processed for plasma. Blood samples were centrifuged at 3200 rpm for 10 minutes at approximately 5° C. within 1 hour of collection. Plasma was split into two approximately equal aliquots, and directly transferred to a 96-well plate tube (1.1 mL). Plug caps were placed on the tubes and the tubes frozen at approximately −70° C. and stored until analysis.
Urine was collected from each animal by diversion from a urine collection pan placed beneath the cage of each animal into an appropriate collection container, surrounded by wet ice or ice packs throughout the collection. The total volume of urine collected at each interval was measured and recorded and a single 10 mL aliquot was collected and stored frozen at approximately −70° C. until analysis.
Plasma and urine were collected and analyzed for the presence of Compound I-1 and Intermediate 3 derived from Compound I-1.
Intermediate 3, Compound I-1 and the internal standard (IS, Compound Z) were extracted from plasma by precipitation. Samples were analyzed using liquid chromatography (LC) with tandem mass spectrometric detection (MS/MS) using electrospray ionization. The standard curve range was from 0.1 to 400 ng/mL.
Thawed plasma samples and the required amount of plasma for standards, blanks and dilutions. Prepared crash solution: room temp ACN containing 1 ng/mL Compound Z as Internal Standard. Created a 1× mixed (Intermediate 3 and Compound I-1) standard curve by diluting the 100× stocks (5 uL of each 100× standard into 490 uL of plasma). Transferred 50 uL of each plasma sample/dilution, standard, or blank. Added 200 uL of the crash solution containing IS. Vortexed for 5 minutes. Centrifuged at 16,000 g at room temperature for 10 min. Transferred 200 uL of each supernatant to a plate. Dried under nitrogen in a TurboVap at 55° C. Resuspended each sample in 50 uL of 0.1% Formic Acid, covered and vortexed. Analyzed by LC-MS/MS.

[3] = male, Beagle, plasma, dog, Compound I-1 0.36 mpk IV in PBS, analyte Compound I-1
[4] = male, Beagle, plasma, dog PO, Intermediate 3 in PEG400 capsules (2 mg/kg)

Compound: O=P(O)(O)OC(CNc1nc(-c2cc(-c3ccon3)n(Cc3ccccc3F)n2)ncc1F)(C(F)(F)F)C(F)(F)F [Compound I-1]
- prodrug converted into its parent drug ([1]; after 30 minutes of incubation): About 80%
- prodrug converted into its parent drug / cleaved [1]: about 95%
- half-life [1]: 16 min
- Vol. of Dist ([2]; dog, Compound I-1 0.36 mpk IV in PBS, analyte Compound I-1): 0.09 ± 0.03 L/kg
- average conversion to the parent ([2]; dog, Compound I-1 administered IV): 95%
- AUC compared with parent dosed in PEG ([2]; dog, Compound I-1 dosed IV in PBS): comparable AUC to Intermediate 3
- prodrug observed in plasma ([2]; dog, after PO administration of Compound I-1): Low levels
- prodrug found in urine ([2]; dog, after dosing of Compound I-1): Negligible amounts
- half-life ([2]; male, Beagle, dog, plasma, iv, Compound I-1 IV in PBS, analyte Compound I-1): ~15 min
- AUC(0-inf) [2, 3]: 1550 ± 601 ng·h/mL
- Cmax [2, 3]: 5110 ± 2150 ng/mL
- clearance [2, 3]: 8.3 ± 3.1 mL/min/kg

Compound: O=P(O)(O)OCOC(CNc1nc(-c2cc(-c3ccon3)n(Cc3ccccc3F)n2)ncc1F)(C(F)(F)F)C(F)(F)F [Compound I-4]
- prodrug converted into its parent drug / cleaved [1]: More than 99%
- half-life [1]: 9 min

Compound: OC(CNc1nc(-c2cc(-c3ccon3)n(Cc3ccccc3F)n2)ncc1F)(C(F)(F)F)C(F)(F)F [Intermediate 3]
- Cmax/C24 (ratio) ([2]; dog PO, Intermediate 3 in PEG400 capsules (2 mg/kg)): 3.6 ± 1.1 ratio
- AUC [2, 4]: 5190 ± 1410 ng·h/mL
- Cmax [2, 4]: 307 ± 116 ng/mL
- Tmax [2, 4]: 90 ± 72 min
- bioavailability ([2]; male, Beagle, plasma, dog PO, Intermediate 3 in PEG400 capsules (2 mg/kg), read-out: Bioavailability (% F)): 64 ± 12.5%
